These results are taken from publication PMC8305076, “Comprehensive Evaluation of Biological Effects of Pentathiepins on Various Human Cancer Cell Lines and Insights into Their Mode of Action” (International Journal of Molecular Sciences, 2021).

Where two headings read alike, the source gives them in different places.

What all share (type): cell-based
Test [1] relates to RT-112. Description: MTT cell viability assay. As to conditions: Homo sapiens, 48 h. The method, then: (§1) Distinct MTT cell viability and crystal violet cell proliferation assays were performed to assess the cytotoxicity of the compounds 1–6 on 14 human cancer cell lines. In the viability assay, cells with intact mitochondria and thus active dehydrogenases are competent to convert MTT to the corresponding insoluble formazan. The formazan can be photometrically detected after solubilization and allows for indirect conclusions about the viability of the cells as an IC50 value. In the crystal violet assay, cells are stained by the binding of the dye to the chromatin, thus allowing for a quantification of biomass that remains adherent after a treatment in comparison with a control after a specific time. Potency is defined as the growth inhibitory concentration 50% (GI50).
(§2) In addition to performing the cell viability assay under normoxia (19% atmospheric oxygen), incubations were also conducted under hypoxic conditions, i.e., atmospheric oxygen levels of 1% during the treatment for 48 h. Hypoxia is a favorable condition of the tumor microenvironment that is connected with poor outcome. Therefore, the low oxygen condition mimics better the tumor environment. The biological effect of the pentathiepins under this condition provides insight into their dependency for oxygen, which has been postulated a key component in the proposed mechanism of action (Figure 3). Consistent with the proposed mechanism of action for five of the compounds, potency decreased under hypoxic conditions; in fact for 6, the half-maximal inhibitory concentration exceeded the highest tested concentration of 10 µM in four cell lines (Figure 6, Table S3). […] In contrast to the other compounds, in some cell lines, the cytotoxic effects of 1 were more pronounced under oxygen-reduced incubation conditions (Figure 6), indicating a tangential role of oxygen availability for this pentathiepin. Especially for the breast cancer cell line MCF-7, the cytotoxicity increased substantially, indicated by a decrease of the IC50 from >10.0 µM to about 1.0 µM.
(§3) The effect of the pentathiepins on the viability of the cell lines was assessed via an MTT assay, performed as previously described. Healthy and viable cells convert the yellow soluble 3-(4,5-dimethylthiazol-2-yl)-2,5-diphenyltetrazolium bromide to the insoluble purple corresponding formazan, which can be spectrophotometrically measured. For this assay, 5000 cells (1 250 for LCLC-103H) in 0.1 mL of medium were seeded per well of a 96-well plate and incubated at standard conditions for 24 h prior to treatment. A serial dilution of the test compounds was prepared in medium, covering final concentrations from 10.0 to 0.04 µM, and 0.1 mL of the working solution was added to each well in triplicate. After 48 h, 20 µL of a 2.5 mg/mL MTT in PBS solution was pipetted into each well and further incubated for 4 h at standard conditions. Thereafter, medium was replaced with 50 µL DMSO, and the plates were put on a shaker for 5 min and subsequently read at λ = 570 nm, with a SpectraMax 384plus (Molecular Devices, Sunnyvale, CA, USA). The cell viabilities of the treatment conditions were calculated in relation to a solvent control sample. The absolute IC50 was calculated via nonlinear regression followed by interpolation of the dose–response graphs in Prism 7 (GraphPad, San Diego, CA, USA). The IC90 was derived from the IC50 by using the slope factor of the dose–response graph with the tool QuickCalcs from GraphPad (GraphPad Software, San Diego, CA, USA).

Test [2] deals with HAP-1. The experiment in a line: MTT cell viability assay. The conditions noted are these: Homo sapiens; for IC50: HAP1, 48 h; for IC90: HAP1, calculated via GraphPad QuickCalcs from MTT IC50 and slope factor. The method, then:
as §1, §2, §3

Test [3] concerns DanG. Description: MTT cell viability assay. The conditions noted are these: Homo sapiens; for IC50: 48 h; for IC90: calculated via GraphPad QuickCalcs from MTT IC50 and slope factor. The method, then: as §1, §2, §3
The subject of a further test is LCLC-103H. Description: crystal violet proliferation assay. As to conditions: Homo sapiens, 96 h, normoxia, read-out: GI50 CV mean. The method, then: as §1
(§4) The antiproliferative effect of the pentathiepins on human cancer cell lines was analyzed by crystal violet assay based on the protocol of a previous publication. […] After dissolving in ethanol, the optical density was measured. Here, 1000 cells (250 for LCLC-103H) in 0.1 mL of medium were seeded per well of a 96 well plate and incubated at standard conditions for 24 h prior to treatment to allow for adhesion of the cells. A serial dilution of the test compounds was prepared in medium, covering final concentrations from 10.0 to 0.04 µM and 0.1 mL of the working solution added to each well in triplicate. Additionally, samples for each cell line were seeded and directly fixed after 24 h to measure the cell density at the beginning of treatment (t0). Fixation was performed by replacing medium with 0.1 mL of a solution containing 1% glutaraldehyde in Dulbecco’s buffer (0.2 g/L KCl, 0.1 g/L MgSO4·7 H2O, 1.55 g/L Na2HPO4·7 H2O, 0.2 g/L KH2HPO4, and 8 g/L NaCl in water) for 20 min. Plates were stored in 0.1 mL of Dulbecco’s buffer until further processing. After 96 h of treatment, the same fixation process was applied to the plates containing cells and test compounds. To stain the cells, 0.1 mL of an aqueous solution of crystal violet (0.02%) was added per well for 20 min, then discarded and the plates afterwards rinsed in clear water for 30 min. The dye was extracted in 50 µL of ethanol per well during 2 h of shaking. The plates were read at λ = 570 nm using a SpectraMax 384plus (Molecular Devices, Sunnyvale, CA, USA), and the proliferation of the treatment conditions was calculated in relation to a solvent control sample after subtracting the background value of the T0-plates. The GI50 (half-maximal growth inhibitory concentration) was calculated via nonlinear regression followed by interpolation of the dose–response graphs in Prism 7 (GraphPad, San Diego, CA, USA).

The subject of test [4] is RT-112. Description: crystal violet proliferation assay. As to conditions: Homo sapiens, 96 h, normoxia, read-out: GI50 CV mean. The method, then: as §1, §4
Another test has as its system YAPC. Description: crystal violet proliferation assay. As to conditions: Homo sapiens, 96 h, normoxia, read-out: GI50 CV mean. The method, then:
as §1, §4

The test system of test [5] is HAP-1. Description: crystal violet proliferation assay. As to conditions: Homo sapiens, HAP1, 96 h, normoxia, read-out: GI50 CV mean. The method, then: as §1, §4
The next test has as its system A-427. Description: crystal violet proliferation assay. As to conditions: Homo sapiens, 96 h, normoxia, read-out: GI50 CV mean. The method, then: as §1, §4
The subject of another test is HAP-1.KO.GPx1. The experiment in a line: crystal violet proliferation assay. The conditions noted are these: Homo sapiens, 96 h, normoxia, read-out: GI50 CV mean. The method, then:
as §1, §4

In a further test the test system is PATU-8902. Description: crystal violet proliferation assay. As to conditions: Homo sapiens, 96 h, normoxia, read-out: GI50 CV mean. The method, then: as §1, §4
For the next test, the system named is Siso. The experiment in a line: crystal violet proliferation assay. The conditions noted are these: Homo sapiens, 96 h, normoxia, read-out: GI50 CV mean. The method, then: as §1, §4
For another test, the system named is RT-4. Description: crystal violet proliferation assay. As to conditions: Homo sapiens, 96 h, normoxia, read-out: GI50 CV mean. The method, then:
as §1, §4

Test [6] relates to DanG. The experiment in a line: crystal violet proliferation assay. As to conditions: Homo sapiens, 96 h, normoxia, read-out: GI50 CV mean. The method, then: as §1, §4
In another test the test system is A2780cis. The experiment in a line: crystal violet proliferation assay. The conditions noted are these: Homo sapiens, 96 h, normoxia, read-out: GI50 CV mean. The method, then:
as §1, §4

In a further test the test system is Kyse-70. The experiment in a line: crystal violet proliferation assay. As to conditions: Homo sapiens, 96 h, normoxia, read-out: GI50 CV mean. The method, then: as §1, §4
The next test deals with A2780. Description: crystal violet proliferation assay. The conditions noted are these: Homo sapiens, 96 h, normoxia, read-out: GI50 CV mean. The method, then:
as §1, §4

[7] abbreviates: hypoxic (1% O2), read-out: IC50 MTT-H mean.
Setting [8] is: normoxic (19% O2), read-out: IC50 MTT-N mean.

The IC50 is the midpoint of a concentration-inhibition curve. The IC90 is the point of the concentration-response curve where the effect stands at 90%. One may read the GI50 as the concentration at which growth is held to half of that of the control. In the case of `CCOc1c2c(c3ccc(C(=O)N4CCN(C(=O)c5ccc(F)cc5)CC4)cn13)SSSSS2` [Compound 5, (6-Ethoxy-[1,2,3,4,5]pentathiepino[6,7-a]indolizin-9-yl)(4-(4-fluorobenzoyl)piperazinyl)methanone], the IC50 in the test on RT-112 [1] (setting [7]) was 1.12 µM; in the test on RT-112 [1] (setting [8]), 1.08 µM; with HAP-1 [2] (setting [7]), 0.661 µM; in the test with HAP-1 [2] (setting [8]), 0.27 µM; in the test with DanG [3] (setting [7]) it was 1.62 µM; in the test with DanG [3] (setting [8]), 1.18 µM. The IC90 in the test on HAP-1 [2] is 0.49 µM; in the test on DanG [3], 2.05 µM. Besides, the GI50 with LCLC-103H was determined as 0.232 µM; in the test on RT-112 [4], 0.384 µM; with YAPC it was 0.411 µM; with HAP-1 [5] it was 0.12 µM; in the test on A-427, 0.32 µM; with HAP-1.KO.GPx1, 0.144 µM. Also, the GI50 in the test on PATU-8902 stood at 0.34 µM; in the test on Siso, 0.369 µM; in the test on RT-4, 0.358 µM; in the test with DanG [6] it was 0.398 µM; with A2780cis, 0.142 µM; in the test on Kyse-70, 0.181 µM. Moreover, in the test on A2780, the GI50 worked out at 0.092 µM.

`CCOc1c2c(c3ccc(C(=O)N4CCN(S(=O)(=O)c5ccc(C)cc5)CC4)cn13)SSSSS2` [Compound 6, (6-Ethoxy-[1,2,3,4,5]pentathiepino[6,7-a]indolizin-9-yl)(4-tosylpiperazinyl)methanone]: the IC50 is greater than 10 µM in the test with RT-112 [1] (setting [7]); 3.41 µM in the test on RT-112 [1] (setting [8]); 1.32 µM with HAP-1 [2] (setting [7]); 0.722 µM with HAP-1 [2] (setting [8]); greater than 10 µM with DanG [3] (setting [7]); 2.18 µM in the test on DanG [3] (setting [8]). The IC90 was 1.46 µM in the test with HAP-1 [2] and 4.94 µM in the test on DanG [3]. Moreover, the GI50 with LCLC-103H was determined as 0.646 µM; with RT-112 [4], 1.1 µM; in the test on YAPC, 1.17 µM; with HAP-1 [5], 0.507 µM; in the test on A-427, 0.352 µM; in the test on HAP-1.KO.GPx1, 0.524 µM. Moreover, the 50% growth inhibitory concentration (GI50) with PATU-8902 worked out at 0.952 µM; with Siso, 0.597 µM; in the test on RT-4, 0.835 µM; with DanG [6], 0.711 µM; in the test with A2780cis, 0.512 µM; in the test with Kyse-70, 0.481 µM. Further, the GI50 in the test on A2780 amounted to 0.538 µM.
